Results as given in patent publication US20070142326A1, “Treatment of a condition in a mammal with administration of aminosugar and uses thereof” (priority 2004, published 2007).
“Also recorded” adds a separate entry of the source.

How the values were obtained:
[1] = test system: synovium of rabbits with ACLT (experimental OA); test: Histological grading of synovium, ACLT rabbits, intra-articular injections; assay type: in vivo, New Zealand White rabbits
Protocol: (§1) Anterior cruciate ligament transection (ACLT). Unilateral or bilateral ACLT was performed as indicated for each set of experiments. ACLT was performed using a medial arthrotomy technique (Yoshioka et al. Osteoarthritis Cartilage 1996; 4:87-98). After dislocating the patella laterally, the ACL was transected with a sharp blade. Complete transection was confirmed by a manual anterior drawer test The knee joints were irrigated with sterile saline and closed in layers with sutures. All animals were maintained individually with ad libitum activity. The animals were sacrificed 8 weeks after the surgery.
(§2) Intra-articular injections of GlcNAc. Intra-articular injections of GlcNAc started one week post-operatively for a period of seven weeks. Rabbits were injected twice per week with GlcNAc in a volume of 0.3 ml per knee joint The single dose of GlcNAc per injection was 80 mg. Control animals were injected twice per week intra-articularly with normal saline (0.3 ml per joint). The third group of rabbits received intra-articular injections of hyaluronan (0.3 ml per joint) twice per week for seven weeks starting one week after the ACL transection. Synovial fluid analysis was performed in 3 animals that developed gross synovial effusions (2 animals in the control group and 1 animal in the hyaluronan group). In all three animals synovial fluid was culture negative.
(§3) Histological grading of the knee joints. Distal femur and proximal tibia from the rabbit knee joints were fixed in 10% buffered formalin, decalcified in TBD-2 decalcifier (ThermoShandon, Pittsburg, Calif.) and embedded in paraffin blocks. Sagittal sections of lateral and medial femoral condyles, and coronal sections of tibial plateaus were used for further histological analysis.
Histological assessment of synovium was based on the presence of synovial proliferation and synovial neoangiogenesis, and it was performed separately for the synovium attached to the tibial plateaus, lateral, and medial femoral condyles.

[2] = test system: articular cartilage of rabbits with ACLT (experimental OA); test: Histological grading of articular cartilage, ACLT rabbits, intra-articular injections; assay type: in vivo, New Zealand White rabbits; conditions: N = 6; for Sulfated glycosaminoglycan loss, histological grade: grade 1-3 by loss of Safranin O staining, intra-articular 80 mg twice per week for 7 weeks; for Impairment of cartilage surface integrity, histological grade: grade 1 intact to 3 full thickness defect, intra-articular
Protocol: as §1, §2, §3
The assessment of sulfated glycosaminoglycan (SGAG) content was performed after staining of the tissue sections with Safranin O/Fast Green.
The following grading system was used for assessing SGAG content: Grade 1—Less than 25% loss of Safranin O staining, Grade 2—25-50% loss of Safranin O staining; Grade 3—More than 50% loss of Safranin O staining;
The following grading system was used for assessing cartilage integrity: Grade 1—Intact cartilage surface; Grade 2—Presence of fibrillations; Grade 3—Full thickness cartilage defect. In addition, all tissue samples were analyzed for the presence of chondrocyte proliferation or cloning.

[3] = Continuous delivery of GlcNAc to the joint (sustained release and alzet pump methods); conditions: after a single intra-articular administration
Protocol: Release of GlcNAc from formulations incubated in phosphate buffered saline. An in vitro release study was performed in phosphate buffered saline to evaluated release kinetics under physiological conditions. Each sustained release formulation (100 μl) was placed in 1.0 mL of phosphate buffered saline and then incubated at 37° C. At different time points, the formulation matrix was separated by removing the phosphate buffered saline bathing solution with a pipet. The resulting solutions were analyzed by UV detection after GlcNAc derivatives were formed by methods previously described (Reissig et. al. J. Biol. Chem. 1955 217: 959-966). The formulation matrix was then re-suspended in 1.0 mL phosphate buffered saline and incubated under the same conditions as described above.
Alzet Pump Administration of GlcNAc. New Zealand White rabbits, 3.0-3.5 kg, were used in this experiment. They were randomly allocated into five groups, each group having 8 rabbits. Group A was treated with saline (negative control group); Group B was treated with 1.5 M GlcNAc group; Group C was treated with 0.5 M GlcNAc group; Group D was treated with 0.15 M GlcNAc group; Group E was treated with 0.05 M GlcNAc group. All compounds were continuously delivered to the joints by Alzet mini pumps. The delivery rate for this pump was 2.5 μl/hour. […]

[4] = test system: synovial tissue of rabbits with ACL transection; test: DNA content in synovial tissue, ACLT rabbits, intra-articular injections; assay type: in vivo, New Zealand White rabbits; conditions: FIG. 5
Protocol: as §1
Intra-articular injections of GlcNAc. Intra-articular injections of GlcNAc started one week post-operatively for a period of seven weeks. Rabbits were injected twice per week with GlcNAc in a volume of 0.3 ml per knee joint The single dose of GlcNAc per injection was 80 mg. Control animals were injected twice per week intra-articularly with normal saline (0.3 ml per joint). […]
Measurement of DNA content in synovial tissue. Synovial tissue cellularity was assessed by quantitating the tissue concentration of DNA (Amiel et. al. J Orthop Res 1986; 4:162-172). […] The aqueous phase containing the DNA was harvested, and the absorbance was measured at […]. […] Results were expressed as mg DNA per mg of dry tissue.

[5] = test system: human articular chondrocytes; conditions: cited from earlier work
[6] = test system: knee joints of rabbits with ACL transection; test: Gross morphological assessment of joint swelling and synovial effusion, ACLT rabbits, intra-articular injections; assay type: in vivo, New Zealand White rabbits; conditions: FIG. 4
Protocol: as §1, §2
(§4) Gross morphological assessment of the knee joints. Gross morphological assessment of the knee joints included assessment of joint swelling, synovial effusion, macroscopic articular cartilage morphology of tibial plateaus and femoral condyles, and assessment of the menisci.
The following grading system was used to assess joint swelling: Grade 0-normal; Grade 1 (mild swelling)—mild inflammation and/or proliferation of the joint capsule; Grade 2 (moderate swelling)—thickening of joint capsule and/or inflammation of the synovium; Grade 3 (severe swelling)—abundant inflammation of the synovium, swelling of the menisci or ligaments (anterior cruciate ligament or posterior cruciate ligament).

[7] = test system: femoral condyles and tibial plateaus of rabbits with ACL transection; test: Gross morphological assessment and digital imaging of articular cartilage, ACLT rabbits, intra-articular injections; assay type: in vivo, New Zealand White rabbits; conditions: for Gross morphological analysis of the femoral condyles: FIG. 2
Protocol: as §1, §2
Gross morphological assessment of the articular cartilage. The distal femur and proximal tibia were harvested keeping a 3.5 cm to 4 cm shaft of the bones. The articular cartilage surface of each specimen was covered with a solution consisting of India ink (Eberhard Faber, Lewisburg, Tenn.) in PBS (1:5 ratio). Excess ink solution was removed by gentle blotting with a tissue that was pre-moistened with PBS. Subsequently, all joints were photographed and digital images were analyzed.
Digital imaging. Articular surfaces of femoral condyles and tibial plateaus were gently blotted dry and cleaned of loose tissue. Each femoral shaft was clamped to an optical bench. An image (resolution: 60 pixels per mm; onscreen magnification: 20×) of the femoral condyles was obtained using a Canon EOS D30 digital camera with a 100 mm macro lens at a distance of approximately 12 cm. A millimeter scale was included in the photograph to accurately scale the image. The scaled image was then projected onto a 3D model of the femoral condyles. The 3D surface area of the lesion was measured by interactively plotting the margins of the lesion. A digital image of articular surface of the tibia was obtained as described above.

[8] = test system: subchondral bone marrow of rabbits with ACLT (experimental OA); test: Histological grading of subchondral bone marrow, ACLT rabbits, intra-articular injections; assay type: in vivo, New Zealand White rabbits
Protocol: as §1, §2, §3
Microscopic assessment of bone marrow was based on the presence of subchondral bone marrow hypercellularity and increased vascularization as shown in Table 3.

[9] = test system: rabbits with bilateral anterior cruciate ligament transection (ACLT); test: Intra-muscular GlcNAc in rabbits with bilateral ACLT, gross morphological grading; assay type: in vivo, New Zealand White rabbits
Protocol: as §1
Intra-muscular injections of GlcNAc. Intra-muscular injections of GlcNAc were performed three times per week starting one week postoperatively for a period of seven weeks. The dose of GlcNAc was 200 mg/kg per injection. The control group of received the same number of intra-muscular injections of normal saline.
as §4
Gross morphological assessment of the articular cartilage. […] Subsequently, all joints were photographed and digital images were analyzed.

chondrocytes = conditions: low millimolar concentrations; cited from earlier work

## CC(=O)N[C@H]1C(O)O[C@H](CO)[C@@H](O)[C@@H]1O (stereo partly drawn) [GlcNAc, N-Acetylglucosamine]
[1]; Lateral femoral condyle, N = 6, saline 4/7, P ≦ 0.16
  Synovial neoangiogenesis, animals with finding / animals: 1/6
[1]; Lateral femoral condyle, N = 6, saline 7/7, P ≦ 0.006
  Synovial thickening/proliferation, animals with finding / animals: 2/6
[1]; Medial femoral condyle, N = 6, saline 5/7, P ≦ 0.05
  Synovial neoangiogenesis, animals with finding / animals: 1/6
[1]; Medial femoral condyle, N = 6, saline 7/7, P ≦ 0.006
  Synovial thickening/proliferation, animals with finding / animals: 2/6
[1]; Tibial plateau, N = 6, saline 4/7, P ≦ 0.16
  Synovial neoangiogenesis, animals with finding / animals: 1/6
[1]; Tibial plateau, N = 6, saline 7/7, P ≦ 0.0002
  Synovial thickening/proliferation, animals with finding / animals: 1/6
[2]; Lateral femoral condyle, saline 2.43 ± 0.53, P ≦ 0.03
  Sulfated glycosaminoglycan loss, histological grade: 1.50 ± 0.83
[2]; Lateral femoral condyle, saline 2.00 ± 1.00, P ≦ 0.17
  Impairment of cartilage surface integrity, histological grade: 1.33 ± 0.51
[2]; Medial femoral condyle, saline 1.57 ± 0.53, P ≦ 0.4
  Sulfated glycosaminoglycan loss, histological grade: 1.66 ± .33
[2]; Medial femoral condyle, saline 1.66 ± 0.41, P ≦ 0.91
  Impairment of cartilage surface integrity, histological grade: 1.66 ± 0.81
[2]; Tibial plateau, saline 1.71 ± 0.76, P ≦ 0.14
  Sulfated glycosaminoglycan loss, histological grade: 1.16 ± 0.40
[2]; Tibial plateau, saline 1.71 ± 0.49, P ≦ 0.05
  Impairment of cartilage surface integrity, histological grade: 1.16 ± 0.41
[3]
  Duration of continuous delivery to the joint: more than three weeks
[4]; intra-articular GlcNAc versus hyaluronan group, p<0.05
  DNA content assessment of synovial tissue: significant reduction in synovial hyperplasia and cellularity
[4]; intra-articular, versus saline
  DNA content in synovial tissue: does not significantly affect
[5]
  Concentration that does not induce chondrocyte cell death: higher than 50 mM
[6]; intra-articular GlcNAc versus hyaluronan group
  Synovial effusion: no significant difference
[6]; intra-articular, versus saline
  Joint swelling: does not significantly affect
  Synovial effusions: does not significantly affect
[7]; femoral condyles and tibial plateaus, intra-articular GlcNAc versus hyaluronan group, FIGS. 6a and 6b
  Surface areas of the cartilage lesions (digital image analysis): greatly reduced
[7]; intra-articular GlcNAc versus intra-articular hyaluronan group (n=7)
  Gross morphological analysis of the femoral condyles: no significant difference
[7]; intra-articular GlcNAc versus intra-articular hyaluronan, p<0.01, FIG. 3
  Chondroprotective activity, gross morphology of tibial plateaus: significantly greater
[7]; intra-articular, two times per week for seven weeks, n=7, versus saline control
  Gross morphological analysis of the femoral condyles: trend towards improved cartilage condition
[7]; intra-articular, two times per week for seven weeks, control group 6 of 7, p<0.003, FIG. 3
  Rabbits that developed a cartilage lesion on the tibial plateaus: 1 of 7
[8]; Lateral femoral condyle, N = 6, saline 3/7, P ≦ 0.07
  Subchondral bone marrow hypercellularity and increased vascularization, animals with finding / animals: 0/6
[8]; Medial femoral condyle, N = 6, saline 3/7, P ≦ 0.07
  Subchondral bone marrow hypercellularity and increased vascularization, animals with finding / animals: 0/6
[8]; Tibial plateau, N = 6, saline 3/7, P ≦ 0.35
  Subchondral bone marrow hypercellularity and increased vascularization, animals with finding / animals: 1/6
[9]; intra-muscular 200 mg/kg three times per week for seven weeks, 6 rabbits versus 6 saline controls, FIGS. 1a and 1b
  Degree of cartilage damage, gross morphological analysis of tibial plateaus and femoral condyles: did not reveal a statistically significant difference
[9]; intra-muscular GlcNAc
  Synovitis: trend towards reduction of synovitis; also recorded: significant reduction of synovitis

## N[C@H]1C(O)O[C@H](CO)[C@@H](O)[C@@H]1O (stereo partly drawn) [GlcN, glucosamine]
chondrocytes
  Cytotoxicity for chondrocytes: cytotoxic for chondrocytes at low millimolar concentrations
